IC50 data for 20 compounds are collected here from patent publication US10479780B2, “Aminopyrazole derivatives” (Chugai Seiyaku Kabushiki Kaisha, priority 2015, dated 2019).

Holding throughout (type): biochemical
The target in assay [1] is T1, human Src enzyme (Homo sapiens, UniProt P12931).
T1 construct: purchased Carna Biosciences, Inc. 08-173
The experiment in a line: Src enzyme inhibitory activity (time-resolved fluorometry, biotinylated peptide phosphorylation). As to conditions: read-out: SRC_IC50. An outline of the steps: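 Compounds were tested for blocking tyrosine phosphorylation of a biotinylated peptide substrate by recombinant human Src. Phosphorylated product was quantified by time-resolved fluorometry using europium cryptate and XL665 conjugates, and IC50 was calculated against the compound-free control.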

Assay [2] addresses T2, human Lck enzyme (Homo sapiens, UniProt P06239).
T2 construct: purchased Carna Biosciences, Inc. 08-170
The experiment in a line: Lck enzyme inhibitory activity (time-resolved fluorometry, biotinylated peptide phosphorylation). Particulars: read-out: LCK_IC50. A digest of the protocol:
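Readout pairs a europium cryptate-labelled anti-phosphotyrosine antibody with XL665-streptavidin, measured by time-resolved fluorescence. IC50 derived from percent inhibition against untreated controls.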

Assay [3] concerns the target T3, human Yes1 enzyme (Homo sapiens, UniProt P07947).
T3 construct: made in house
The experiment in a line: Yes1 enzyme inhibitory activity (time-resolved fluorometry, biotinylated peptide phosphorylation). Particulars: read-out: YES_IC50. An outline of the steps:
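Inhibition was expressed against a compound-free control to give IC50, using TR-FRET read-out (Eu-cryptate anti-pTyr antibody, streptavidin-XL665).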

Setting [4] is: biotinylated peptide phosphorylation.

Where two headings read alike, the source gives them in different places.

T1 sequence (P12931 whole entry): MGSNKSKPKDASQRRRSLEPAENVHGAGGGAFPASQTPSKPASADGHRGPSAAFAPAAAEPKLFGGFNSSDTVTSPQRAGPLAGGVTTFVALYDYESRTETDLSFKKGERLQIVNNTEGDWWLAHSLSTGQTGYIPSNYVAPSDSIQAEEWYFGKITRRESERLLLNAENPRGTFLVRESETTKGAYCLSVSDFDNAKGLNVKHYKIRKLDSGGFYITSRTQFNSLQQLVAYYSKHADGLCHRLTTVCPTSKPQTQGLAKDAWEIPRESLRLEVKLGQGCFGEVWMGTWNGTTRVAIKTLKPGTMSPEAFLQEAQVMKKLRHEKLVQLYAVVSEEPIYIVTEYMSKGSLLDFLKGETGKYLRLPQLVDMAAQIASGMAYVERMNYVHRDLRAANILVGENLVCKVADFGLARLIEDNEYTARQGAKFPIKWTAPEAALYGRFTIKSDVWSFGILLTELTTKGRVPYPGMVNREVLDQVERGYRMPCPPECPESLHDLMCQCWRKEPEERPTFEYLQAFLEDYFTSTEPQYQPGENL
T3 sequence (P07947 whole entry): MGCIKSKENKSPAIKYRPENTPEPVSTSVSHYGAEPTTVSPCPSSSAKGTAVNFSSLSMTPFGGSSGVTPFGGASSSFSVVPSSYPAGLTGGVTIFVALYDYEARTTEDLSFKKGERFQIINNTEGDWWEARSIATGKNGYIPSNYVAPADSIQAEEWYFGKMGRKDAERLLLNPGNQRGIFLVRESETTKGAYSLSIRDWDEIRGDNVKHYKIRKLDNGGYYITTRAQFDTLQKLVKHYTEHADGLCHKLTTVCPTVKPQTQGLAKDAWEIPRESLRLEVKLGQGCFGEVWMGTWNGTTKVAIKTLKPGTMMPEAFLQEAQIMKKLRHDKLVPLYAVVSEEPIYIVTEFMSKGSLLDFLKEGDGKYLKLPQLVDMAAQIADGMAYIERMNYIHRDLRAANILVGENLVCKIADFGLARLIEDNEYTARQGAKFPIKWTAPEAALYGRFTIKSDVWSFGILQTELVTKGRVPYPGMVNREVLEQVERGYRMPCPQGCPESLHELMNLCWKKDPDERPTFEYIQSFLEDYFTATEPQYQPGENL
T2 sequence (P06239 whole entry): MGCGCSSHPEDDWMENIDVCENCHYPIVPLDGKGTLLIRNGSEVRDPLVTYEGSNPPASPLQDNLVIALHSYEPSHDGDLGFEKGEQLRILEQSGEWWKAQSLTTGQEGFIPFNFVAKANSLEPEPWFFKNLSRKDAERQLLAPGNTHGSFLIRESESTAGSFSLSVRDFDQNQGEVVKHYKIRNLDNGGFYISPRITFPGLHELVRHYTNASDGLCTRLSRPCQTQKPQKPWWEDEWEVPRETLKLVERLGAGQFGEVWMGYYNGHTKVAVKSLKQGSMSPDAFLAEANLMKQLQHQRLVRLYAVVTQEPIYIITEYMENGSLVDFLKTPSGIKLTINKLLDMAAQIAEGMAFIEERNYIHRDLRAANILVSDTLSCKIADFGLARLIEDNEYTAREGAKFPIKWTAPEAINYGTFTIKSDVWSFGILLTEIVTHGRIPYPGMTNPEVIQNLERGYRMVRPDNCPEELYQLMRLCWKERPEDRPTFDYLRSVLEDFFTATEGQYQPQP

For `COCCNS(=O)(=O)Nc1cc2[nH]c(C(=O)c3cnn(-c4ccc(Oc5ccccc5F)cc4C)c3N)cc2cc1F` [Example 4-5-007, [5-amino-1-[4-(2-fluorophenoxy)-2-methylphenyl]pyrazol-4-yl]-[5-fluoro-6-(2-methoxyethylsulfamoylamino)-1H-indol-2-yl]methanone], the IC50 in assay [1] (setting [4]) was 33 nM; in assay [2] (setting [4]) it was 18 nM; in assay [3] (setting [4]), 0.5 nM.
Turning to `Cc1cc(-n2ncc(C(=O)c3cc4cc(C)c(C5CCN(C(C)C)CC5)cc4[nH]3)c2N)ccc1Oc1ccccc1F` [Example 5-1-012, [5-amino-1-[4-(2-fluorophenoxy)-3-methylphenyl]pyrazol-4-yl]-[5-methyl-6-(1-propan-2-ylpiperidin-4-yl)-1H-indd-2-yl] methanone], the IC50 amounted to 310 nM in assay [1], 23 nM in assay [2] and 2.5 nM in assay [3].
Regarding `Cc1cc2cc(C(=O)c3cnn(-c4cnc(Oc5c(F)cccc5F)cc4C)c3N)[nH]c2cc1N1C(=O)NC2(COC2)C1=O` [Example 5-1-404, 7-[2-[5-amino-1-[6-(2,6-difluorophenoxy)-4-methylpyridin-3-yl]pyrazole-4-carbonyl]-5-methyl-1H-indol-6-yl]-2-oxa-5,7-diazaspiro[3.4] octane-6,8-dione], the IC50 in assay [1] (setting [4]) was determined as 48 nM; in assay [2] (setting [4]), 2.6 nM; in assay [3] (setting [4]), 1.7 nM.
Take `Cc1cc(Oc2ccccc2F)ccc1-n1ncc(C(=O)c2cc3cc(F)c(N4C(=O)NC5(CC5)C4=O)cc3[nH]2)c1N` [Example 5-1-375, 6-[2-[5-amino-1-[4-(2-fluorophenoxy)-2-methylphenyl]pyrazole-4-carbonyl]-5-fluoro-1H-indol-6-yl]-4,6-diazaspiro[2.4]heptane-5,7-dione]: the IC50 in assay [1] was 24 nM; in assay [2], 7.1 nM; in assay [3] it was 2 nM.
For `Cc1cc(Oc2c(F)cccc2F)ncc1-n1ncc(C(=O)c2cc3cc(OCC(F)F)c(NS(=O)(=O)c4cncc(Cl)c4)cc3[nH]2)c1N` [Example 5-1-575, N-[2-[5-amino-1-[6-(2,6-difluorophenoxy)-4-methylpyridin-3-yl]pyrazole-4-carbonyl]-5-(2,2-difluoroethoxy)-1H-indol-6-yl]-5-chloropyridine-3-sulfonamide], the IC50 in assay [1] (setting [4]) was found to be 650 nM; in assay [2] (setting [4]) it was 46 nM; in assay [3] (setting [4]), 4.3 nM.
Take `Cc1cc(-n2ncc(C(=O)c3cc4cc(OCC(F)F)c(N5CCOC5=O)cc4[nH]3)c2N)ccc1Oc1ccccc1F` [Example 5-1-168, 3-[2-[5-amino-1-[4-(2-fluorophenoxy)-3-methylphenyl]pyrazole-4-carbonyl]-5-(2,2-difluoroethoxy)-1H-indol-6-yl]-1,3-oxazolidin-2-one]: the IC50 in assay [1] worked out at 210 nM; in assay [2], 45 nM; in assay [3], 1.1 nM.
In the case of `Cc1cc(Oc2ccccc2F)ncc1-n1ncc(C(=O)c2cc3cc(OCC(F)F)c(N4CCN(S(C)(=O)=O)CC4)cc3[nH]2)c1N` [Example 4-23-007, [5-amino-1-[6-(2-fluorophenoxy)-4-methylpyridin-3-yl]pyrazol-4-yl]-[5-(2,2-difluoroethoxy)-6-(4-methylsulfonylpiperazin-1-yl)-1H-indol-2-yl]methanone], the IC50 in assay [1] (setting [4]) worked out at 16 nM; in assay [2] (setting [4]) it was 5.5 nM; in assay [3] (setting [4]) it was 1.3 nM.
Turning to `Cc1cc(-n2ncc(C(=O)c3cc4cc(OC5CCN(C6CS(=O)(=O)C6)CC5)c(Br)cc4[nH]3)c2N)ccc1Oc1ccccc1F` [Example 5-1-227, [5-amino-1-[4-(2-fluorophenoxy)-3-methylphenyl]pyrazol-4-yl]-[6-bromo-5-[1-(1,1-dioxothietan-3-yl)piperidin-4-yl]oxy-1H-indol-2-yl]methanone], the IC50 was 560 nM in assay [1], 46 nM in assay [2] and 3.9 nM in assay [3].
The like results for `Cc1cc(Oc2ccccc2F)ccc1-n1ncc(C(=O)c2cc3cc(OC(F)F)c(N4CC(C)(C)NS4(=O)=O)cc3[nH]2)c1N` [Example 5-1-340, [5-amino-1-[4-(2-fluorophenoxy)-2-methylphenyl]pyrazol-4-yl]-[5-(difluoromethoxy)-6-(4,4-dimethyl-1,1-dioxo-1,2,5-thiadiazolidin-2-yl)-1H-indol-2-yl]methanone] were, in that order, 130 nM, 20 nM and 2.1 nM.
As to `Cc1cc(Oc2ccccc2F)ncc1-n1ncc(C(=O)c2cc3cc(F)c(NS(=O)(=O)c4cncc(F)c4)cc3[nH]2)c1N` [Example 5-1-549, N-[2-[5-amino-1-[6-(2-fluorophenoxy)-4-methylpyridin-3-yl]pyrazole-4-carbonyl]-5-fluoro-1H-indol-6-yl]-5-fluoropyridine-3-sulfonamide], the figures for the IC50 in assay [1] (setting [4]), in assay [2] (setting [4]) and in assay [3] (setting [4]) were 740 nM, 80 nM and 7.7 nM, respectively.
The like results for `Cc1cc2cc(C(=O)c3cnn(-c4c(C)cc(Oc5cccc(F)c5F)cc4F)c3N)[nH]c2cc1NS(C)(=O)=O` [Example 4-2-056, N-[2-[5-amino-1-[4-(2,3-difluorophenoxy)-2-fluoro-6-methylphenyl]pyrazole-4-carbonyl]-5-methyl-1H-indol-6-yl]methanesulfonamide] were, in that order, 97 nM, 24 nM and 3.9 nM.
The like results for `Cc1cc(Oc2ccccc2F)ncc1-n1ncc(C(=O)c2cc3cc(OCC(F)F)c(N4CCOCC4)cc3[nH]2)c1N` [Example 4-25-020, {5-amino-1-[6-(2-fluorophenoxy)-4-methylpyridin-3-yl]pyrazol-4-yl}-[5-(2,2-difluoroethoxy)-6-morpholin-4-yl-1H-indol-2-yl]methanone] were, in that order, 13 nM, 2.3 nM and 1.2 nM.
For `Cc1cc2cc(C(=O)c3cnn(-c4cnc(Oc5c(F)cccc5Cl)cc4C)c3N)[nH]c2cc1NS(C)(=O)=O` [Example 4-2-064, N-[2-[5-amino-1-[6-(2-chloro-6-fluorophenoxy)-4-methylpyridin-3-yl]pyrazole-4-carbonyl]-5-methyl-1H-indol-6-yl]methanesulfonamide] the same measures were 63 nM, 14 nM and 2.4 nM.
On to `Cc1cc2cc(C(=O)c3cnn(-c4c(C)cc(Oc5cccc(F)c5F)cc4F)c3N)[nH]c2cc1N1CCCS1(=O)=O` [Example 4-2-115, [5-amino-1-[4-(2,3-difluorophenoxy)-2-fluoro-6-methylphenyl]pyrazol-4-yl]-[6-(1,1-dioxo-1,2-thiazolidin-2-yl)-5-methyl-1H-indol-2-yl]methanone], for which the IC50 in assay [1] (setting [4]) is 63 nM; in assay [2] (setting [4]), 16 nM; in assay [3] (setting [4]), 4.1 nM.
`Cc1cc(Oc2ccccc2F)ncc1-n1ncc(C(=O)c2cc3cc(OCC(F)F)c(NS(=O)(=O)N4CCOCC4)cc3[nH]2)c1N` [Example 4-22-006, N-[2-[5-amino-1-[6-(2-fluorophenoxy)-4-methylpyridin-3-yl]pyrazole-4-carbonyl]-5-(2,2-difluoroethoxy)-1H-indol-6-yl]morpholine-4-sulfonamide]: the IC50 in assay [1] (setting [4]) turned out to be 130 nM; in assay [2] (setting [4]), 51 nM; in assay [3] (setting [4]), 1.9 nM.
On to `Cc1cc(Oc2ccccc2F)ccc1-n1ncc(C(=O)c2cc3cc(OCC(F)F)c(N4C(=O)[C@@H]5CCCN5C4=O)cc3[nH]2)c1N` [Example 5-1-252, (7aS)-2-[2-[5-amino-1-[4-(2-fluorophenoxy)-2-methylphenyl]pyrazole-4-carbonyl]-5-(2,2-difluoroethoxy)-1H-indol-6-yl]-5,6,7,7a-tetrahydropyrrolo[1,2-c]imidazole-1,3-dione], for which the IC50 was found to be 14 nM in assay [1], 4.6 nM in assay [2] and 1.2 nM in assay [3].
Consider `Cc1cc(Oc2ccccc2F)ccc1-n1ncc(C(=O)c2cc3cc(F)c(-n4c(C)cc(=O)[nH]c4=O)cc3[nH]2)c1N` [Example 5-1-104, 1-[2-[5-amino-1-[4-(2-fluorophenoxy)-2-methylphenyl]pyrazole-4-carbonyl]-5-fluoro-1H-indol-6-yl]-6-methylpyrimidine-2,4-dione], for which the IC50 in assay [1] was 9.7 nM; in assay [2] it was 1.1 nM; in assay [3], 0.63 nM.
Turning to `Cc1cc(Oc2cccc(F)c2F)cc(F)c1-n1ncc(C(=O)c2cc3cc(NS(C)(=O)=O)c(F)cc3[nH]2)c1N` [Example 4-2-100, N-[2-[5-amino-1-[4-(2,3-difluorophenoxy)-2-fluoro-6-methylphenyl]pyrazole-4-carbonyl]-6-fluoro-1H-indol-5-yl]methanesulfonamide], the IC50 was determined as 27 nM in assay [1] (setting [4]), 2.1 nM in assay [2] (setting [4]) and 0.73 nM in assay [3] (setting [4]).
Regarding `Cc1cc(Oc2ccccc2F)ncc1-n1ncc(C(=O)c2cc3cc(SC(F)F)c(NS(=O)(=O)CCCF)cc3[nH]2)c1N` [Example 5-1-339, N-[2-[5-amino-1-[6-(2-fluorophenoxy)-4-methylpyridin-3-yl]pyrazole-4-carbonyl]-5-(difluoromethylsulfanyl)-1H-indol-6-yl]-3-fluoropropane-1-sulfonamide], the IC50 in assay [1] is 540 nM; in assay [2], 74 nM; in assay [3], 5.7 nM.
Turning to `COc1cc2cc(C(=O)c3cnn(-c4cnc(Oc5ccccc5F)cc4C)c3N)[nH]c2cc1NS(C)(=O)=O` [Example 4-1-008, N-[2-[5-amino-1-[6-(2-fluorophenoxy)-4-methylpyridin-3-yl]pyrazole-4-carbonyl]-5-methoxy-1H-indol-6-yl]methanesulfonamide], the IC50 was found to be 52 nM in assay [1] (setting [4]), 4 nM in assay [2] (setting [4]) and 0.69 nM in assay [3] (setting [4]).
